Measured values taken from ChEMBL document CHEMBL1201862, “PubChem BioAssay data set” (2004).
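All cell lines were grown in 96-well plates and treated with compound for 48 hours. At the GI50, growth is halved.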 Calls of active or inactive are those of the source. No stated cut-off is given here; in the data, active = GI50 up to about 1.1 µM and inactive = higher.

What was measured:
Test in all cases: NCI tumour cell line growth inhibition, 48 h
[1] = tested on: NCI-H23
[2] = tested on: Malme-3M
[3] = tested on: HL-60
[4] = tested on: HT-29
[5] = tested on: HOP-92
[6] = tested on: IGROV-1
[7] = tested on: SK-MEL-2
[8] = tested on: SK-OV-3
[9] = tested on: MOLT-4
[10] = tested on: KM12
[11] = tested on: TK-10
[12] = tested on: OVCAR-8
[13] = tested on: LOX IMVI
[14] = tested on: A549
[15] = tested on: SNB-19
[16] = tested on: NCI-H522
[17] = tested on: RPMI-8226

Measured: GI50

CCOC(=N)CC(=O)c1ccccc1
inactive: [1] > 100 µM | [2] > 100 µM | [3] > 100 µM | [4] > 100 µM | [5] > 100 µM | [6] > 100 µM | [7] > 100 µM | [8] > 100 µM | [9] > 100 µM | [10] > 100 µM | [11] > 100 µM | [12] > 100 µM | [13] > 100 µM | [14] > 100 µM | [15] > 100 µM | [16] > 100 µM

O=c1oc2c3ccc4ccccc4c3n(CCN3CCOCC3)c2c2ccccc12
inactive: [2] > 100 µM | [3] 87.9 µM | [4] 27.4 µM | [5] > 100 µM | [6] > 100 µM | [8] > 100 µM | [9] 1.69 µM | [10] > 100 µM | [17] 46.5 µM | [11] > 100 µM | [12] > 100 µM | [13] 4.06 µM | [14] 5.42 µM | [15] > 100 µM | [16] 2.48 µM

COc1ccc(/N=N/c2c(-c3ccccc3)nn(C(=O)CC(=O)Nc3ccccc3Cl)c2-c2ccccc2)cc1
inactive: [1] > 100 µM | [2] > 100 µM | [3] 22.6 µM | [4] 47.1 µM | [5] 20.6 µM | [6] > 100 µM | [9] 3.42 µM | [10] 87.1 µM | [11] 77.6 µM | [12] > 100 µM | [13] > 100 µM | [14] > 100 µM | [15] > 100 µM | [16] > 100 µM

CCOc1ncnc2ccc(Cl)c(I)c12
inactive: [1] 79.1 µM | [2] > 100 µM | [3] 38.8 µM | [4] > 100 µM | [6] 38.7 µM | [7] 53.1 µM | [8] 36.4 µM | [10] 91 µM | [17] 29.5 µM | [11] 62.7 µM | [12] > 100 µM | [13] 49.4 µM | [14] 75.7 µM | [15] 89.1 µM | [16] > 10 µM

COc1ccc2nc(NC(=O)C(=O)CC(=O)c3ccc(Cl)cc3)sc2c1
inactive: [1] > 100 µM | [2] > 100 µM | [3] > 100 µM | [4] > 100 µM | [5] 30.5 µM | [6] 73.1 µM | [7] > 100 µM | [8] 34.7 µM | [9] > 100 µM | [10] 35.1 µM | [11] > 100 µM | [12] > 100 µM | [14] 67.1 µM | [15] 95.5 µM | [16] 92.3 µM

C=C(COC(C)=O)CC(/C=C(\C)CCC=C(C)C)OC(C)=O (centres undefined)
inactive: [1] > 100 µM | [3] 74.5 µM | [4] > 100 µM | [5] 46.5 µM | [6] > 100 µM | [7] > 100 µM | [8] > 100 µM | [9] 48.4 µM | [10] > 100 µM | [17] > 10 µM | [11] > 100 µM | [12] > 100 µM | [13] 32.2 µM | [14] > 100 µM | [15] > 100 µM | [16] > 100 µM

O=C1Nc2nc3ccccc3n2N=C2CCCC12 (centres undefined)
inactive: [1] > 100 µM | [2] > 100 µM | [4] > 100 µM | [6] > 100 µM | [7] > 100 µM | [8] > 100 µM | [9] > 100 µM | [10] > 100 µM | [17] > 100 µM | [11] > 100 µM | [12] > 100 µM | [13] > 100 µM | [14] > 100 µM | [15] > 100 µM

O=C1c2ccccc2N2Oc3ccccc3C12c1ccccc1 (centres undefined)
inactive: [1] > 100 µM | [2] > 100 µM | [3] > 100 µM | [4] > 100 µM | [5] 92.7 µM | [6] > 100 µM | [8] > 100 µM | [9] > 100 µM | [17] > 100 µM | [12] > 100 µM | [14] > 100 µM | [15] > 100 µM | [16] > 100 µM

COC12OCCN(CCO)C1=CC(=O)C1(C)N=NC(C)C12 (centres undefined)
inactive: [1] > 100 µM | [2] > 100 µM | [4] > 100 µM | [5] > 100 µM | [6] > 100 µM | [8] > 100 µM | [9] > 100 µM | [10] > 100 µM | [17] > 100 µM | [11] > 100 µM | [12] > 100 µM | [13] > 100 µM | [14] > 100 µM | [16] > 100 µM

O=C(CCn1[nH]c(=O)c(Cl)c(Cl)c1=O)NO
inactive: [1] > 100 µM | [2] > 100 µM | [3] > 100 µM | [4] > 100 µM | [6] > 100 µM | [7] > 100 µM | [8] > 100 µM | [9] > 100 µM | [10] > 100 µM | [17] > 100 µM | [11] > 100 µM | [12] > 100 µM | [13] > 100 µM | [14] > 100 µM | [15] > 100 µM | [16] > 100 µM

COC(=O)C(C(=O)C(=O)NC1=C(Cl)C(=O)c2ccccc2C1=O)c1csc(-n2nc(-c3ccccc3)cc2-c2ccccc2)n1 (centres undefined)
inactive: [1] > 100 µM | [2] 19.1 µM | [3] > 100 µM | [4] 20.7 µM | [5] > 100 µM | [6] > 100 µM | [8] > 100 µM | [9] > 100 µM | [10] > 100 µM | [17] > 100 µM | [11] > 100 µM | [12] > 100 µM | [13] > 100 µM | [14] > 100 µM | [15] > 100 µM | [16] > 100 µM

CCCCCCCCCCCCC(Br)C(=O)NCC(N)=O (centres undefined)
inactive: [1] 4.51 µM | [2] 13.2 µM | [3] 4.57 µM | [4] 15.8 µM | [5] 3.7 µM | [6] 9.66 µM | [7] 11.7 µM | [8] 41.6 µM | [10] 14.2 µM | [11] 18.1 µM | [12] 4.79 µM | [13] 12.4 µM | [14] 15.6 µM | [15] 11.2 µM | [16] 2.28 µM

COC(=O)C(=O)OC1(C(C)=O)CC2(c3ccccc3)OC1(c1ccccc1)c1ccccc12 (centres undefined)
inactive: [1] 17.2 µM | [2] 19.1 µM | [3] 33.5 µM | [4] 17 µM | [5] 14 µM | [6] 16.3 µM | [8] 29.9 µM | [9] 22 µM | [17] 20.8 µM | [11] 29.4 µM | [12] 15.9 µM | [13] 15.7 µM | [14] 14.8 µM | [15] 19.9 µM | [16] 17.7 µM
